In brackets after ≈: the same amount, converted by molar mass.
How the values were obtained:
[1] = Assessment of solubility (McIlvaine buffers, 24 h shake, UPLC-UV); format: physicochemical; conditions: kinetic from dmso stock
Summary of the method: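 Compounds from 10 mM DMSO stocks were shaken for 24 h at room temperature in McIlvaine buffers at pH 2.2, 4.5 and 6.8 (2.5% v/v DMSO final), then filtered. Filtrates were quantified by UPLC-UV at 254 nm against a 50:50 acetonitrile/water reference assumed fully dissolved, as a single determination.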

[2] = human liver microsome (HLM) metabolic stability assay; format: in vitro ADME; conditions: human liver microsomes; % hepatic blood flow calculated from t1/2
Summary of the method: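 Compounds at 1 uM incubated with human liver microsomes plus NADPH at 37° C., sampled at 0, 5, 15, 30 and 60 min into cold acetonitrile and quantified by LC/MS/MS. t½ from the slope of ln % remaining vs time; CLint, CLh and % Qh derived from it (n=1).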

Row | solubility at 24 h ([1]; pH 2.2, aqueous buffer) [µg/mL] | solubility at 24 h ([1]; pH 4.5, aqueous buffer) [µg/mL] | solubility at 24 h ([1]; pH 6.8, aqueous buffer) [µg/mL] | HLM (% Qh) [2] [% Qh] | SMILES
1 | 110 (≈ 189 µM) | 83 (≈ 142 µM) | 79 (≈ 136 µM) | <24 | CCOc1c(C(=O)O)cnn1-c1cccc(-c2cccc(C)c2OCc2cc(C)c3c(c2)CCN([C@H]2CCCOC2)C3)n1 [Compound 197]
2 | 100 (≈ 167 µM) | 82 (≈ 137 µM) | 81 (≈ 135 µM) | <24 | CCOc1c(C(=O)O)cnn1-c1cccc(-c2cccc(C)c2OCc2cc(C)c3c(c2)CCN(CC2COCCO2)C3)n1 (centres unmarked) [Compound 243]
3 | 93 (≈ 156 µM) | 74 (≈ 124 µM) | 63 (≈ 106 µM) | <24 | CCOc1c(C(=O)O)cnn1-c1cccc(-c2cccc(C)c2OCc2ccc3c(c2C)CCN(C[C@H]2CCCCO2)C3)n1 [Compound 232]
4 | 110 (≈ 193 µM) | 88 (≈ 155 µM) | 90 (≈ 158 µM) | <24 | COc1c(C(=O)O)cnn1-c1cccc(-c2cccc(C)c2OCc2ccc3c(c2C)CCN(C2CCOCC2)C3)n1 [Compound 27]
5 | 100 (≈ 167 µM) | 77 (≈ 129 µM) | 86 (≈ 144 µM) | <24 | CCOc1c(C(=O)O)cnn1-c1cccc(-c2cccc(C)c2OCc2ccc3c(c2OC)CCN(C2CCOCC2)C3)n1 [Compound 220]

— patent publication US8906904B2, “Alkoxy pyrazoles as soluble guanylate cyclase activators” (Boehringer Ingelheim International GmbH, priority 2012, dated 2014)
